Measured values taken from publication PMC5655693, “Conformational stabilization as a strategy to prevent nucleophosmin mislocalization in leukemia” (Scientific Reports, 2017).

Assays:
Nucleophosmin (NPM) [1] = target: T1, Nucleophosmin (NPM) (Homo sapiens, UniProt P06748); assay: SPR steady state ([…] model, S0.[…] ≈ KD); DSF ΔTm […] °C at […] with C-terminal domain; type: binding
T1 construct: gene NPM1; full-length NPM (SPR); C-terminal domain residues 243–294 (DSF)

Nucleophosmin (NPM) [2] = target: T1, Nucleophosmin (NPM); assay: SPR steady state ([…] model, S0.[…] ≈ KD); DSF ΔTm […] °C at […] with C-terminal domain; Trp fluorescence unfolding; type: binding

T1 sequence (P06748 whole entry, the tested form may be a part): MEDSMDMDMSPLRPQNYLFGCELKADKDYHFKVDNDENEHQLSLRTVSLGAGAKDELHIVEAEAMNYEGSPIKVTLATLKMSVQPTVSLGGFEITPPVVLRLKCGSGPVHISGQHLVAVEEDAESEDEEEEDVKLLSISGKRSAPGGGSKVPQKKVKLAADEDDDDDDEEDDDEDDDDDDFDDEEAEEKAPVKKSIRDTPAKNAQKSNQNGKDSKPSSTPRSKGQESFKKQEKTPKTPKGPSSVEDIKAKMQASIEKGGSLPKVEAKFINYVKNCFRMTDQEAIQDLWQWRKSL

Kd (Nucleophosmin (NPM) [1]) [µM]	Kd (Nucleophosmin (NPM) [2]) [µM]	Compound
102 ± 23		Cc1ccc(-n2c(SCC(=O)Nc3ccc4c(c3)OCCO4)nc3ccccc3c2=O)cc1 [C3]
	68 ± 13	CC1=C(C(=O)Nc2ccc(Br)cn2)C(c2ccccn2)C2=C(CC(c3ccccc3)CC2=O)N1 (centres unmarked) [C1]
